{"source": "ChEMBL document CHEMBL1132725", "about": "“Evaluation of new L-thiocitrulline derivatives as inhibitors of nitric oxide synthase” (Bioorg Med Chem Lett, 2000)", "key": {"[1]": {"molecular_target": "T1, Nitric oxide synthase 3 (Bos taurus) (UniProt P29473)", "T1 sequence (whole entry)": "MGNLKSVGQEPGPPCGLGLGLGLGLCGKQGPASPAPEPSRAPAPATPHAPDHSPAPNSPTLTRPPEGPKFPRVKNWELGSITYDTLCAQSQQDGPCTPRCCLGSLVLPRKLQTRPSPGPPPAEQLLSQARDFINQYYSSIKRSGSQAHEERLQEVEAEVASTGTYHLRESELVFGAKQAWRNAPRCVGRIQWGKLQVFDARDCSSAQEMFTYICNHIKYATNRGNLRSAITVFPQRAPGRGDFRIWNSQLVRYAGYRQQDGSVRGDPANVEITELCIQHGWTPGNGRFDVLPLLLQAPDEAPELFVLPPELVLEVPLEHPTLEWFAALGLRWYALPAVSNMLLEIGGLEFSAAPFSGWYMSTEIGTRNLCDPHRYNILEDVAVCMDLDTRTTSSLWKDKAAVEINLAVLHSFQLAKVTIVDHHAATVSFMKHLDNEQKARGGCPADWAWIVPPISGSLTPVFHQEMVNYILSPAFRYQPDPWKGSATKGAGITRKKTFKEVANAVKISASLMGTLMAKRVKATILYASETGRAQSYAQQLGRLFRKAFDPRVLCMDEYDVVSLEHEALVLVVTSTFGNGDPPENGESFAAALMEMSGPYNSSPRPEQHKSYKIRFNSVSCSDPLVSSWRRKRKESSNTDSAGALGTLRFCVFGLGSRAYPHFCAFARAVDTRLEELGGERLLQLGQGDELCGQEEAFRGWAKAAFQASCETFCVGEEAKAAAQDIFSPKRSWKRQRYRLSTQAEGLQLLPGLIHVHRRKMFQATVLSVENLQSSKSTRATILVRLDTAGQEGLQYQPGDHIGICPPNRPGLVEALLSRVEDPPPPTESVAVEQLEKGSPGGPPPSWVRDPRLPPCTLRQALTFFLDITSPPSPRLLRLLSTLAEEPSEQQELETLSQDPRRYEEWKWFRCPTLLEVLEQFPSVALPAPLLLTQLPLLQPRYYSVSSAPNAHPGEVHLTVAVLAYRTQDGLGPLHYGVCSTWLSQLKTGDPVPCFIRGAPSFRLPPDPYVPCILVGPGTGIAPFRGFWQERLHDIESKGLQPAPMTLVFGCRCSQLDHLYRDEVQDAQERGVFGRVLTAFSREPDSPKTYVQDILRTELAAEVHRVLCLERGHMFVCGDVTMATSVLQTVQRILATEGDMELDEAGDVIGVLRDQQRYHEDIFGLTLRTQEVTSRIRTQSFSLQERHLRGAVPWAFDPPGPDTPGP", "test": "Compound was tested for the percent inhibition of nitric oxide synthase (e) using [14C]L-citrulline as radioligand.", "settings": "concentration not given here"}, "[2]": {"molecular_target": "T2, Nitric oxide synthase, inducible (Mus musculus) (UniProt P29477)", "T2 sequence (whole entry)": "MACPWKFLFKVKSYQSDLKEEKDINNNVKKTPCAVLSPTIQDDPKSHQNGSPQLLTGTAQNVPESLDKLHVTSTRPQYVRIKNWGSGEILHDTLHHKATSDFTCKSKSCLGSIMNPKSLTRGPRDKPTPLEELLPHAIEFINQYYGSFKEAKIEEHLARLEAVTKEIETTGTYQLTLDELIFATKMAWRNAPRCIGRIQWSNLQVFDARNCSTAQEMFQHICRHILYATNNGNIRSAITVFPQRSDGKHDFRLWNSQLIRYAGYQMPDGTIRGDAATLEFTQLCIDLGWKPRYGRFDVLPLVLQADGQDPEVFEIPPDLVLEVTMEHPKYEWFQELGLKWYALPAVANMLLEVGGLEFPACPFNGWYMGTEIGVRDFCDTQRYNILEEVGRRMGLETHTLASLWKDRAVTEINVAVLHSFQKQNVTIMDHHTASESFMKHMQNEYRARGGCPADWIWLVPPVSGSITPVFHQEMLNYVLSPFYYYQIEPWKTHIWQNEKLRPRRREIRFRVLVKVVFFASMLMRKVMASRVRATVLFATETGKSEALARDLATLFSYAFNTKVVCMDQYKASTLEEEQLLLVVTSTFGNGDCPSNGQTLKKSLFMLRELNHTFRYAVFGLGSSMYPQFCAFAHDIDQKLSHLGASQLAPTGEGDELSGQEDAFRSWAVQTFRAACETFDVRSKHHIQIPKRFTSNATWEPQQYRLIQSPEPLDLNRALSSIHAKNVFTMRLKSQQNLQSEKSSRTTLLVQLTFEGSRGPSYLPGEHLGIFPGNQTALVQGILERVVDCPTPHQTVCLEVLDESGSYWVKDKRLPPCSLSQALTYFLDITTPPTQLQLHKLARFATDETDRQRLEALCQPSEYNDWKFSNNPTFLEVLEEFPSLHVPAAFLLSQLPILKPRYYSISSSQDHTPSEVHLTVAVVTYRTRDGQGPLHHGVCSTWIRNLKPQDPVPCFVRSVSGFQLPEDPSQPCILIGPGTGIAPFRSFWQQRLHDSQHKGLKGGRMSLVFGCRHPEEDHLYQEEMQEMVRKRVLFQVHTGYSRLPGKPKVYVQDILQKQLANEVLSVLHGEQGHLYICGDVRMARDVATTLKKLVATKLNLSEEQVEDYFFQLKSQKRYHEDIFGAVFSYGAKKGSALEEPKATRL", "test": "Compound was tested for the percent inhibition of nitric oxide synthase (i) using [14C]L-citrulline as radioligand.", "settings": "concentration not given here"}, "[3]": {"molecular_target": "Nitric oxide synthase 1 (Rattus norvegicus) (UniProt P29476)", "sequence (P29476 whole entry)": "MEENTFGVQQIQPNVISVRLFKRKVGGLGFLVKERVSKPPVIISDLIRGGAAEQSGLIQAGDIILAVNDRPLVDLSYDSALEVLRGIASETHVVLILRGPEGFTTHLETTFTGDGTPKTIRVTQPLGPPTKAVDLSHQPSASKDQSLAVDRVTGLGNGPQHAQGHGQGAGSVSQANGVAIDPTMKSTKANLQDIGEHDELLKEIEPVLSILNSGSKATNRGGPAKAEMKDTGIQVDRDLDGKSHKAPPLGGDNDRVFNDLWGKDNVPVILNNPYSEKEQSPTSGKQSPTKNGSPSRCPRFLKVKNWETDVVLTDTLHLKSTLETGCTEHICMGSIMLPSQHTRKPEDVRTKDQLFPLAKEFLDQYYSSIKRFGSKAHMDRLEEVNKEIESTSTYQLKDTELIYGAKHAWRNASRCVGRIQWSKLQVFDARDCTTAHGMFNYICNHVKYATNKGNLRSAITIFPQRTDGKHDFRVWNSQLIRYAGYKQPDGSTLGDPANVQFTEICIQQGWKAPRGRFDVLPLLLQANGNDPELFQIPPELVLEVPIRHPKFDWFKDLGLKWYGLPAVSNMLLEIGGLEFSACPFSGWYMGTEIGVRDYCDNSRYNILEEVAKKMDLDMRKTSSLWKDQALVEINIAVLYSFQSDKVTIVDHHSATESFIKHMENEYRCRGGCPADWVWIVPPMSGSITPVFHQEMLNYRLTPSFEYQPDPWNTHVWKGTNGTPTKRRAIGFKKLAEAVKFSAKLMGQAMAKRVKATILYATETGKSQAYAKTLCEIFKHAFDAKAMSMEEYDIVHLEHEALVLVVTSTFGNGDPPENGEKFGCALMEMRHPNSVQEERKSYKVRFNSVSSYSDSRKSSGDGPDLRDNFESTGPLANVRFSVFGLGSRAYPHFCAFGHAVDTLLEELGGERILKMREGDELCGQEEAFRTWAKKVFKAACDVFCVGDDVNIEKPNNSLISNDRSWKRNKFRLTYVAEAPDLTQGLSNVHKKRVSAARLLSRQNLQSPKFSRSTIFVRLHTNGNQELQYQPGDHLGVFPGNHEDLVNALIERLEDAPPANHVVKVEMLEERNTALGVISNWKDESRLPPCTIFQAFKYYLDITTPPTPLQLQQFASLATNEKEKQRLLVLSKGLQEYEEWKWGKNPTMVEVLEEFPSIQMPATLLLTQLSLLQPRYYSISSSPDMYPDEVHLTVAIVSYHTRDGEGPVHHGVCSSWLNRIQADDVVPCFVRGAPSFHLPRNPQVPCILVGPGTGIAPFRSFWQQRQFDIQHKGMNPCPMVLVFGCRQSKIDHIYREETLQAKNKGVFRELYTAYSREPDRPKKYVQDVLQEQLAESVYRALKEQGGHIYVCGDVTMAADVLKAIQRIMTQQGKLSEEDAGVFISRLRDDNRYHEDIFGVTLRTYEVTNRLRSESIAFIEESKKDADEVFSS", "test": "Compound was tested for the percent inhibition of nitric oxide synthase (n) using [14C]L-citrulline as radioligand.", "settings": "concentration not given here"}, "[4]": {"molecular_target": "T3, Nitric oxide synthase, inducible (Mus musculus, UniProt P29477)", "T3 sequence (P29477 whole entry)": "T2 sequence (whole entry)", "test": "Compound was tested for the competitive inhibition of nitric oxide synthase (i) using [14C]L-citrulline as radioligand. value ranges from 3.6-9 uM"}, "Nitric oxide synthase 1": {"molecular_target": "Nitric oxide synthase 1 (Rattus norvegicus, UniProt P29476)", "sequence (P29476 whole entry)": "as above", "test": "Compound was tested for the competitive inhibition of nitric oxide synthase (n) using [14C]L-citrulline as radioligand.; value ranges from 0.06-2 uM"}}, "data": [{"smiles": "CSC(=NCCC[C@H](N)C(=O)O)SC", "values": [{"measurement": "inhibition", "setting": "[1]", "result": 46, "unit": "%"}, {"measurement": "inhibition", "setting": "[2]", "result": 56, "unit": "%"}, {"measurement": "inhibition", "setting": "[3]", "result": 39, "unit": "%"}]}, {"smiles": "N/C(S)=N/CCC[C@H](N)C(=O)O", "values": [{"measurement": "inhibition", "setting": "[1]", "result": "> 99", "unit": "%"}, {"measurement": "inhibition", "setting": "[2]", "result": "> 99", "unit": "%"}, {"measurement": "Ki", "setting": "[4]", "result": 3600, "unit": "nM"}, {"measurement": "inhibition", "setting": "[3]", "result": "> 99", "unit": "%"}, {"measurement": "Ki", "setting": "Nitric oxide synthase 1", "result": 60, "unit": "nM"}]}, {"smiles": "CS/C(S)=N/CCC[C@H](N)C(=O)O", "values": [{"measurement": "inhibition", "setting": "[1]", "result": 25, "unit": "%"}, {"measurement": "inhibition", "setting": "[2]", "result": 54, "unit": "%"}, {"measurement": "inhibition", "setting": "[3]", "result": 27, "unit": "%"}]}, {"smiles": "CCOP(=S)(NCCC[C@H](N)C(=O)O)OCC", "values": [{"measurement": "inhibition", "setting": "[2]", "result": "< 10", "unit": "%"}]}]}
